Patent US20190174760A1, “N-ALKYLSULFONYL CONDENSED HETEROCYCLIC COMPOUND OR SALT THEREOF, INSECTICIDE COMPRISING THE COMPOUND, AND METHOD FOR USING THE INSECTICIDE” (Nihon Nohyaku Co., Ltd., priority 2016, published 2019)

Assays:
[1] = test system: Plutella xylostella; assay: Insecticidal test on Plutella xylostella (dip of Chinese cabbage seedlings with laid eggs); type: in vivo; conditions: 144 h, seedlings with laid eggs dipped about 30 seconds, 25° C., 6 days after dip treatment, read-out: insecticidal efficacy (corrected mortality rate) on Plutella xylostella
Source text: Insecticidal Test on Plutella xylostella
Adults of Plutella xylostella were released onto Chinese cabbage seedlings and allowed to lay eggs thereon. At 2 days after the release of the adults, the Chinese cabbage seedlings with laid eggs were dipped for about 30 seconds in agrochemical formulations diluted to 500 ppm, each of which contained a different compound represented by the general formula (1) of the present invention as an active ingredient. After air-dried, the seedlings were kept in a thermostatic chamber at 25° C. At 6 days after the dip treatment, the number of hatched larvae per plot was counted, the mortality rate was calculated according to the formula shown below, and the insecticidal efficacy was evaluated according to the criteria of Test Example 2. This test was conducted in triplicate using 10 adults of Plutella xylostella per plot.
Corrected mortality rate (%)=100×(Number of hatched larvae in a non-treatment plot−Number of hatched larvae in a treatment plot)/Number of hatched larvae in a non-treatment plot [Math. 3]

[2] = test system: Laodelphax striatellus; assay: Insecticidal test on Laodelphax striatellus (rice seedling dip); type: in vivo; conditions: 192 h, rice seedlings dipped 30 seconds, 3rd-instar larvae, 8 days after inoculation, read-out: insecticidal efficacy (corrected mortality rate) on Laodelphax striatellus
Source text: Insecticidal Test on Laodelphax striatellus
The compounds represented by the general formula (1) of the present invention or salts thereof were separately dispersed in water and diluted to 500 ppm. Rice plant seedlings (variety: Nihonbare) were dipped in the agrochemical dispersions for 30 seconds. After air-dried, each seedling was put into a separate glass test tube and inoculated with ten 3rd-instar larvae of Laodelphax striatellus, and then the glass test tubes were capped with cotton plugs. At 8 days after the inoculation, the numbers of surviving larvae and dead larvae were counted, the corrected mortality rate was calculated according to the formula shown below, and the insecticidal efficacy was evaluated according to the criteria shown below.
Corrected mortality rate (%)=100×(Survival rate in a non-treatment plot−Survival rate in a treatment plot)/Survival rate in a non-treatment plot [Math. 2]
A: the corrected mortality rate is 100%. B: the corrected mortality rate is 90 to 99%. C: the corrected mortality rate is 80 to 89%. D: the corrected mortality rate is 50 to 79%.

Structure (SMILES) | mortality at 500 ppm [1] [%] | mortality at 500 ppm [2] [%]
CCS(=O)(=O)n1c(-c2nc3cc(C(F)(F)C(F)(F)F)nnc3n2C)cc2ccccc21 [Compound 1-33, 2-(1-ethylsulfonylindol-2-yl)-3-methyl-6-pentafluoroethyl-3H-imidazo[4,5-c]pyridazine] | 100 | 100
CCS(=O)(=O)n1c(-c2nc3cc(C(F)(F)C(F)(F)F)nnc3n2C)cc2ccc(F)cc21 [Compound 1-65, 2-(1-ethylsulfonyl-6-fluoroindol-2-yl)-3-methyl-6-pentafluoroethyl-3H-imidazo[4,5-c]pyridazine] | 100 | 100
CCS(=O)(=O)n1c(-c2nc3cc(C(F)(F)F)cnc3n2C)cc2cc(C(F)(F)F)ccc21 [Compound 2-11, 2-(1-ethylsulfonyl-5-trifluoromethylindol-2-yl)-3-methyl-6-trifluoromethyl-3H-imidazo[4,5-b]pyridine] | 100 | 100
CCS(=O)(=O)n1c(-c2nc3cc(SC(F)(F)F)ccc3o2)cc2ccccc21 [Compound 3-1, 2-(1-ethylsulfonylindol-2-yl)-5-trifluoromethylthiobenzo[d]oxazole] | 100 | –
